Patent US20100119479A1, “THERAPEUTIC ANTIVIRAL PEPTIDES” (INTERMUNE, INC., priority 2008, published 2010)

Columns and labels:
[1] = test system: HCV sub-genomic replicon, GS4.3 (HuH-7 hepatoma cells); assay: Quantitation by ELISA of NPTII in the HCV sub-genomic replicon, GS4.3; assay type: cell-based; details: Hepatitis C virus, GS4.3 replicon cells, 72 h incubation
Description: Quantitation by ELISA of the Selectable Marker Protein, Neomycin Phosphotransferase II (NPTII) in the HCV Sub-Genomic Replicon, GS4.3
The HCV sub-genomic replicon (1377/NS3-3′, accession No. AJ242652), stably maintained in HuH-7 hepatoma cells, was created by Lohmann et al. Science 285: 110-113 (1999). The replicon-containing cell culture, designated GS4.3, was obtained from Dr. Christoph Seeger of the Institute for Cancer Research, Fox Chase Cancer Center, Philadelphia, Pa.
GS4.3 cells were maintained at 37° C., 5% CO2, in DMEM (Gibco 11965-092) supplemented with L-glutamine 200 mM (100×) (Gibco25030-081), non-essential amino acids (NEAA)(Biowhittaker 13-114E), heat-inactivated (HI) Fetal Bovine Serum(FBS)(Hyclone SH3007.03) and 750 μg/mL geneticin (G418)(Gibco 10131-035). Cells were sub-divided 1:3 or 4 every 2-3 days.
24 h prior to the assay, GS4.3 cells were collected, counted, and plated in 96-well plates (Costar 3585) at 7500 cells/well in […] standard maintenance medium (above) and incubated in the conditions above. To initiate the assay, culture medium was removed, cells were washed once with PBS (Gibco 10010-023) and 90 μl Assay Medium (DMEM, L-glutamine, NEAA, 10% HI FBS, no G418) was added. Inhibitors were made as a 10× stock in Assay Medium, (3-fold dilutions from 10 μM to […] final concentration, final DMSO concentration 1%), […] were added to duplicate wells, plates were rocked to mix, and incubated as above for 72 h.
An NPTII Elisa kit was obtained from AGDIA, Inc. (Compound direct ELISA test system for Neomycin Phosphotransferase II, PSP 73000/4800). Manufacturer's instructions were followed, with some modifications. 10×PEB-1 lysis buffer was made up to include 500 μM PMSF (Sigma P7626, 50 mM stock in isopropanol). After 72 h incubation, cells were washed once with PBS and […] PEB-1 with PMSF was added per well. Plates were agitated vigorously for 15 minutes, room temperature, then frozen at −70° C. Plates were thawed, lysates were mixed thoroughly, and 100 μl were applied to an NPTII Elisa plate. A standard curve was made. Lysate from DMSO-treated control cells was pooled, serially diluted with PEB-1 with PMSF, and applied to duplicate wells of the ELISA plate, in a range of initial lysate amount of 150 μL-2.5 μL. In addition, 100 μL buffer alone was applied in duplicate as a blank. Plates were sealed and gently agitated at room temperature for 2 h. Following capture incubation, the plates were washed 5×300 μL with PBS-T (0.5% Tween-20, PBS-T was supplied in the ELISA kit). For detection, a 1× dilution of enzyme conjugate diluent MRS-2 (5×) was made in PBS-T, into which 1:100 dilutions of enzyme conjugates A and B were added, as per instructions. Plates were resealed, and incubated with agitation, covered, room temperature, for 2 h. The washing was then repeated and 100 μL, of room temperature TMB substrate was added. After approximately 30 minutes incubation (room temperature, agitation, covered), the reaction was stopped with 50 μL, 3M sulfuric acid. Plates were read at 450 nm on a Molecular Devices Versamax plate reader.
Inhibitor effect was expressed as a percentage of DMSO-treated control signal, and inhibition curves were calculated using a 4-parameter equation: y=A+((B−A)/(1+((C/x)̂D))), where C is half-maximal activity or EC50.

[2] = target: T1, full-length NS3/NS4A-2 (HCV NS3 protease) (Hepatitis C virus genotype 1b, UniProt Q9WMX2); assay: NS3 Inhibition Assay (NS3-NS4 protease assay, RETS1 substrate); assay type: biochemical; details: NS3/NS4A-2 protease
T1 construct: Recombinant E. coli or Baculovirus full-length NS3; host or cells: E. coli or baculovirus (BV) expression
Protocol: NS3 Complex Formation with NS4A-2.
Recombinant E. coli or Baculovirus full-length NS3 was diluted to 3.33 μM with assay buffer and transferred material to an eppendorf tube and placed in a water bath in a 4° C. refrigerator. The appropriate amount of NS4A-2 diluted to […] in assay buffer was added to equal the volume of NS3 above (conversion factor—3.8 mg/272 μL assay buffer). The material was transferred to an eppendorf tube and placed in water bath in a 4° C. refrigerator.
After equilibration to 4° C., equal volumes of NS3 and NS4A-2 solutions were combined in an eppendorf tube, mix gently with a manual pipettor, and incubate mixture for 15 minutes in the 4° C. water bath. Final concentrations in the mixture are 1.67 μM NS3, 4.15 mM NS4A-2 (2485-fold molar excess NS4A-2).
After 15 minutes at 4° C., the NS3/NS4A-2 eppendorf tube was removed and place it in a room temperature water bath for 10 minutes. NS3/NS4A-2 was aliquoted at appropriate volumes and store at −80° C. (E. coli NS3 run at 2 nM in assay, aliquot at 25 μL. BV NS3 run at 3 nM in assay, aliquot at 30 μL).
Step a. Sample compounds were dissolved to 10 mM in DMSO then diluted to 2.5 mM (1:4) in DMSO. Typically, compounds were added to an assay plate at 2.5 mM concentration, yielding upon dilution a starting concentration of 50 microM in the assay inhibition curve. Compounds were serial diluted in assay buffer to provide test solutions at lower concentrations.
Step b. The E. coli. NS3/NS4A-2 was diluted to 4 nM NS3 (1:417.5 of 1.67 μM stock−18 μL1.67 μM stock+7497 μL assay buffer). The BV NS3/NS4A-2 was diluted to 6 nM NS3 (1:278.3 of 1.67 μM stock−24 μL1.67 μM stock+6655 μL assay buffer).
Step c. Using the manual multichannel pipettor, and being careful not to introduce bubbles into the plate, 50 μL assay buffer were added to wells A01-H01 of a black Costar 96-well polypropylene storage plate.
Step d. Using the manual multichannel pipettor, and being careful not to introduce bubbles into the plate, 50 μL of diluted NS3/NS4A-2 from Step b were added to wells A02-H12 of the plate in Step c.
Step e. Using the manual multichannel pipettor, and being careful not to introduce bubbles into the plate, 25 μL of the wells in drug dilution plate in Step a were transferred to corresponding wells in assay plate in Step d. The tips on the multichannel pipettor were changed for each row of compounds transferred.
Step f Using the manual multichannel pipettor, and being careful not to introduce bubbles into the plate, the contentes of the wells from the assay plate in Step e were mixed by aspirating and dispensing 35 μL of the 75 μL in each well five times. The tips on multichannel pipettor were changed for each row of wells mixed.
Step g. The plate was covered with a polystyrene plate lid, and the plate from Step f containing NS3 protease and sample compounds was pre-incubated 10 minutes at room temperature.
While plate from Step g is pre-incubating, the RETS1 substrate was diluted in a 15 mL polypropylene centrifuge tube. The RETS1 substrate was diluted to 8 μM (1:80.75 of 646 μM stock—65 μL 646 μM stock+5184 μL assay buffer).
After the plate in Step g was done pre-incubating, and using the manual multichannel, 25 μL of substrate were added to all wells on the plate. The contents of the wells of the plate were quickly mixed, as in Step f, mixing 65 μL of the 100 μL in the wells.
The plate was read in kinetic mode on the Molecular Devices SpectraMax Gemini XS plate reader. Reader settings: Read time: 30 minutes, Interval: 36 seconds, Reads: 51, Excitation λ: 335 nm, Emission λ: 495 nm, cutoff: 475 nm, Automix: off, Calibrate: once, PMT: high, Reads/well: 6, Vmax pts: 21 or 28/51 depending on length of linearity of reaction
IC50s are determined using a four parameter curve fit equation, and converted to Ki's using the following Km's: […]
Full-length E. coli NS3−2.03 μM
Full-length BV NS3−1.74 μM
where Ki=IC50/(1+[S]/Km))

T1 sequence (Q9WMX2 1027-1657): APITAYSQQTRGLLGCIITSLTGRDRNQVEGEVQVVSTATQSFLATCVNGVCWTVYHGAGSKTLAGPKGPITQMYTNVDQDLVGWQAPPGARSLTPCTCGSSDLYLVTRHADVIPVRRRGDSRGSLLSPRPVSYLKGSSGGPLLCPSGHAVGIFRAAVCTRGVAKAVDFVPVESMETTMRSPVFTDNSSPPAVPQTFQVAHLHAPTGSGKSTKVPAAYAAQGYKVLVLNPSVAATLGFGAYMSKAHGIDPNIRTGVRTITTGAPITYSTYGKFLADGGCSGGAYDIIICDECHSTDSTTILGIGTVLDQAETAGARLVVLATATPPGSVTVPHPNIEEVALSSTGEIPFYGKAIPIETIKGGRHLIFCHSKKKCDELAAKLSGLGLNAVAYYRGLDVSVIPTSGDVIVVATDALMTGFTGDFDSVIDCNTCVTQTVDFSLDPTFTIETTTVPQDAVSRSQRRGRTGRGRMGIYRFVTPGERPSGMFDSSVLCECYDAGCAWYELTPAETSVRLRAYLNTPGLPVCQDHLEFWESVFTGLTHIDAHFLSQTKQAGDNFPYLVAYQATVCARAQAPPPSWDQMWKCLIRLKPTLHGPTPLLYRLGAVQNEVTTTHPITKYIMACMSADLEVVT
T1 sequence (Q9WMX2 1658-1711): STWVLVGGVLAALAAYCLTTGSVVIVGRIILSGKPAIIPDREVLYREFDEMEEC

Structure (SMILES) | EC50 [1] [nM] | IC50 [2] [nM]
CC[C@@H]1C[C@]1(NC(=O)[C@@H]1C[C@@H](OC(=O)N2Cc3ccc(NC(=O)COC)cc3C2)CN1C(=O)[C@@H](Nc1cc(F)cc(C(F)(F)F)c1)C(C)(C)C)C(=O)NS(=O)(=O)C1CC1 [Compound 19] | < 100 | < 100
CC[C@@H]1C[C@]1(NC(=O)[C@@H]1C[C@@H](Oc2cc(-c3nc(C(C)C)cs3)nc3c(C)c(OC)ccc23)CN1C(=O)[C@@H](Nc1ccc(F)c(C(F)(F)F)c1)C(C)(C)C)C(=O)NS(=O)(=O)N(C)C [Compound 309] | < 100 | < 100
C=C[C@@H]1C[C@]1(NC(=O)[C@@H]1C[C@@H](Oc2nccc3ccccc23)CN1C(=O)[C@@H](Nc1ccc(F)c(C(F)(F)F)c1)C(C)(C)C)C(=O)NS(=O)(=O)C1CC1 [Compound 6] | < 100 | < 100
CC[C@@H]1C[C@]1(NC(=O)[C@@H]1C[C@@H](Oc2nc3ccccc3s2)CN1C(=O)[C@@H](Nc1cccc(C(F)(F)F)c1)C(C)(C)C)C(=O)NS(=O)(=O)C1(C)CC1 [Compound 231] | < 100 | < 100
CC(C)(C)[C@H](Nc1cccc(C(F)(F)F)c1)C(=O)N1C[C@H](OC(=O)N2Cc3cccc(Cl)c3C2)C[C@H]1C(=O)N[C@]1(C(=O)NS(=O)(=O)C2(C)CC2)C[C@H]1C1CC1 [Compound 303] | < 100 | < 100
CC[C@@H]1C[C@]1(NC(=O)[C@@H]1C[C@@H](OC(=O)N2Cc3ccc(NCCN4CCOCC4)cc3C2)CN1C(=O)[C@@H](Nc1cc(F)cc(C(F)(F)F)c1)C(C)(C)C)C(=O)NS(=O)(=O)C1(C)CC1 [Compound 314] | < 100 | < 100
CC[C@@H]1C[C@]1(NC(=O)[C@@H]1C[C@@H](OC(=O)N2Cc3cccc(F)c3C2)CN1C(=O)[C@@H](Nc1cccc(C(=O)NCCN(C)C)c1)C(C)(C)C)C(=O)NS(=O)(=O)C1CC1 [Compound 13] | > 1000 | < 100
CC[C@@H]1C[C@]1(NC(=O)[C@@H]1C[C@@H](OC(=O)N2Cc3ccc(NC(=O)CN4CCOCC4)cc3C2)CN1C(=O)[C@@H](Nc1cc(F)cc(C(F)(F)F)c1)C(C)(C)C)C(=O)NS(=O)(=O)C1CC1 [Compound 20] | < 100 | < 100
CC[C@@H]1C[C@]1(NC(=O)[C@@H]1C[C@@H](Oc2cc(-c3nc(C(C)C)cs3)nc3c(C)c(OC)ccc23)CN1C(=O)[C@@H](Nc1ccc(F)c(C(F)(F)F)c1)C(C)(C)C)C(=O)NS(=O)(=O)C1CC1 [Compound 308] | < 100 | < 100
C=C[C@@H]1C[C@]1(NC(=O)[C@H]1Cc2cc(Oc3cccc(Cl)c3)ccc2CN1C(=O)[C@@H](Nc1cccc(C(F)(F)F)c1)C(C)(C)C)C(=O)NS(=O)(=O)C1(C)CC1 [Compound 22] | > 1000 | < 100
CC[C@@H]1C[C@]1(NC(=O)[C@@H]1C[C@@H](Oc2cc(-c3ccccc3)nc3cc(OC)ccc23)CN1C(=O)[C@@H](Nc1cccc(C(F)(F)F)c1)C(C)(C)C)C(=O)NS(=O)(=O)C1(C)CC1 [Compound 230] | < 100 | < 100
C=C[C@@H]1C[C@]1(NC(=O)[C@@H]1C[C@@H](Oc2cc(-c3nc(C(C)C)cs3)nc3c(C)c(OC)ccc23)CN1C(=O)[C@@H](Nc1cc(Cl)cc(C(F)(F)F)c1)C(C)(C)C)C(=O)NS(=O)(=O)C1(C)CC1 [Compound 403] | < 100 | < 100
CC[C@@H]1C[C@]1(NC(=O)[C@@H]1C[C@@H](OC(=O)N2Cc3cccc(F)c3C2)CN1C(=O)[C@@H](Nc1ccc(F)c(C#N)c1)C(C)(C)C)C(=O)NS(=O)(=O)C1CC1 [Compound 15] | 100 to 1000 | < 100
CC[C@@H]1C[C@]1(NC(=O)[C@@H]1C[C@@H](OC(=O)N2Cc3cccc(F)c3C2)CN1C(=O)[C@@H](Nc1cccc(OC(F)(F)F)c1)C(C)(C)C)C(=O)NS(=O)(=O)C1(C)CC1 [Compound 289] | < 100 | < 100
CC[C@@H]1C[C@]1(NC(=O)[C@@H]1C[C@@H](Oc2nc3ccccc3n2CC)CN1C(=O)[C@@H](Nc1cccc(C(F)(F)F)c1)C(C)(C)C)C(=O)NS(=O)(=O)C1(C)CC1 [Compound 232] | < 100 | < 100
CC[C@@H]1C[C@]1(NC(=O)[C@@H]1C[C@@H](OC(=O)N2Cc3cccc(F)c3C2)CN1C(=O)[C@@H](Nc1cccc(S(=O)(=O)N2CCOCC2)c1)C(C)(C)C)C(=O)NS(=O)(=O)C1CC1 [Compound 10] | > 1000 | < 100
CC[C@@H]1C[C@]1(NC(=O)[C@@H]1C[C@@H](OC(=O)N2Cc3cccc(F)c3C2)CN1C(=O)[C@@H](Nc1cccc(OC(F)(F)F)c1)C(C)(C)C)C(=O)NS(=O)(=O)C1CC1 [Compound 12] | < 100 | < 100
